How the values were obtained:
rats = details: continuous administration, 1200 mg/kg/day for 52 weeks; cited from earlier work
urinary 8OH-dG [1] = experiment: Oxidative stress lessening effect on normal rat (urinary 8OH-dG by ELISA); assay type: in vivo; details: SD rats, oral soybean oil solution, 100 mg/kg/day for 4 weeks
Procedure: (§1) The effect of lessening oxidative stress in vivo was evaluated with urinary 8-hydroxydeoxyguanosine (8OH-dG) having high effectiveness as an oxidative stress marker. This material results from nucleic acid damage due to oxidative stress, and is discharged into urine without undergoing further metabolism. It is thus thought that the amount of oxidative stress in vivo and the amount of 8OH-dG discharged have a close relationship therebetween. A decrease in amount of the material in urine means a reduction in oxidative stress in vivo and the prevention of damage to nucleic acid.
A soybean oil solution of oxidized coenzyme Q10 or reduced coenzyme Q10 (containing about 2% of oxidized coenzyme Q10) was orally administered to SD rats (6-week old, male) in a dose of 100 mg/kg/day for 4 weeks. 4 weeks after, urine was collected, and the amount of urinary 8OH-dG was determined by an ELISA kit (Japan Institute for the Control of Aging).

urinary 8OH-dG [2] = experiment: Oxidative stress lessening effect on spontaneously diabetic mouse (urinary 8OH-dG); assay type: in vivo; details: KK-Ay mice, 4 weeks
Procedure: as §1
The dose dependency of the oxidative stress lessening effect of each of reduced and oxidized coenzyme Q10 was evaluated by the same method as that used for GK rats except that KK-Ay mice with spontaneous diabetes and having a higher blood sugar level than that of GK rats were used. KK-Ay 5-week old male mice were used, and evaluated in groups in each of which n=11. Oxidized coenzyme Q10 or reduced coenzyme Q10 (containing about 2% by weight of oxidized coenzyme Q10) was mixed with a purified feed (produced by CLEA JAPAN, INC.) at each of ratios of 0.02% by weight, 0.1% by weight, and 0.5% by weight, and each mixture was freely given to the KK-Ay mice. In a control group, the purified feed not containing coenzyme Q10 was freely given to rats. 4 weeks after the supply, urine was collected, and the amount of urinary 8OH-dG was determined by the same method as in Example 1. […] In the reduced coenzyme Q10 administration group, with a dose of 0.02% by weight, the lessening effect was low (82% of the control group), while with a dose of 0.1% by weight or more, the lessening effect was significant (dose of 0.1% by weight: 73% of the control group, dose of 0.5% by weight: 56% of the control group). In the oxidized coenzyme Q10 administration group, the dose-dependent lessening effect was observed without showing a significant difference, and with a dose of 0.5% by weight, the amount of urinary 8OH-dG was 78% of that of the control group.

[3] = system: spleen tissues of GK rats; experiment: Tissue protecting effect on spontaneously diabetic rat (histopathological evaluation of spleen tissue denaturation); assay type: in vivo; details: oral administration for 7 weeks, spleen histopathology, four examples per group
Procedure: The protective effect of each of oxidized coenzyme Q10 and reduced coenzyme Q10 (containing about 2% by weight of oxidized coenzyme Q10) on denaturation of the spleen tissues of GK rats by using the same test system as in Example 1. As a control, a soybean oil solution not containing coenzyme Q10 was orally administered. After the coenzyme Q10 was administered for 7 weeks, the spleen was extracted from each rat, and the degree of tissue denaturation was histopathologically evaluated.
The tissue protecting effect of vitamin E was evaluated by the same method as in Example 4.

[4] = cited from earlier work
urinary 8OH-dG [5] = experiment: Oxidative stress lessening effect on spontaneously diabetic rat (urinary 8OH-dG); assay type: in vivo; details: GK rats, 0.1% by weight in feed
Procedure: as §1
The oxidative stress lessening effect of each of reduced and oxidized coenzyme Q10 in vivo was evaluated by using GK rats with spontaneous diabetes which induced spleen tissue denaturation due to oxidative stress in vivo. A feed (CE-2, produced by CLEA JAPAN, INC.) containing 0.1% by weight of reduced coenzyme Q10 (containing about 2% by weight of oxidized coenzyme Q10) or oxidized coenzyme Q10 was freely given to GK rats (5-week old, male, n=4 in each group). In a control group, the feeds not containing coenzyme Q10 was freely given to the rats. 2 weeks and 4 weeks after, urine was collected, and the amount of urinary 8OH-dG was determined by the same method as in Example 1. […] In the oxidized coenzyme Q10 administration group, the amount of urinary 8OH-dG measured 2 weeks after the administration was decreased to 58% of the control group, and the amount of urinary 8OH-dG measured 4 weeks after the administration was deceased to 52% of the control group.
The oxidative stress lessening effect of a typical antioxidant, vitamin E, was evaluated by using GK rats in the same test system as in Example 2. Like coenzyme Q10, vitamin E was mixed with a feed at a ratio of 0.1% by weight, and the resulting foodstuff was freely given to the GK rats. 2 weeks and 4 weeks after the feeding, the amount of urinary 8OH-dG was determined. […] In comparison to the coenzyme Q10 administration group of Example 2, 2 weeks after, the decreasing effect in Reference Example 1 was lower the effects of both the reduced form and the oxidized form in Example 2, and 4 weeks after, the effect was at the same level as that of the oxidized coenzyme Q10 and lower than that of the reduced coenzyme Q10 in Example 2.

kidney dialysis patients = details: daily dose of 800 IU; cited from earlier work
[6] = listed as Oxidized coenzyme Q10
[7] = 2 weeks after the administration
[8] = 4 weeks after the administration

Compound	toxic effect in chronic toxicity test (rats)	amount of urinary 8OH-dG relative to solvent control group (assumed as 100%) (urinary 8OH-dG [1])	amount of urinary 8OH-dG relative to control group (urinary 8OH-dG [2]; 0.5% by weight in feed)	Number of examples with finding: Islet fibrillation 1+ [3]	Number of examples with finding: Islet fibrillation 2+ [3]	Number of examples with finding: Normal [3]	Number of examples with finding: Islet fibrillation 1+ [3, 6]	Number of examples with finding: Islet fibrillation 2+ [3, 6]	antioxidative activity in vitro [4]	amount of urinary 8OH-dG relative to control group (assumed as 100%) (urinary 8OH-dG [5]; [7])	amount of urinary 8OH-dG relative to control group (assumed as 100%) (urinary 8OH-dG [5]; [8])	amount of urinary 8OH-dG relative to control group (urinary 8OH-dG [2]; 0.02% by weight in feed)	amount of urinary 8OH-dG relative to control group (urinary 8OH-dG [2]; 0.1% by weight in feed)	Number of examples with finding: Islet fibrillation 1+ ([3]; listed as Reduced coenzyme Q10)	Number of examples with finding: Islet fibrillation 2+ ([3]; listed as Reduced coenzyme Q10)	Number of examples with finding: Islet fibrillation 1+ ([3]; listed as VE)	Number of examples with finding: Islet fibrillation 2+ ([3]; listed as VE)	increase of risk of brain hemorrhage as a side effect (kidney dialysis patients)	patients died from hemorrhagic diseases (kidney dialysis patients)
COC1=C(OC)C(=O)C(C/C=C(\C)CC/C=C(\C)CC/C=C(\C)CC/C=C(\C)CC/C=C(\C)CC/C=C(\C)CC/C=C(\C)CC/C=C(\C)CC/C=C(\C)CCC=C(C)C)=C(C)C1=O [coenzyme Q10]	no toxic effect was observed																		
COC1=C(OC)C(=O)C(C/C=C(\C)CC/C=C(\C)CC/C=C(\C)CC/C=C(\C)CC/C=C(\C)CC/C=C(\C)CC/C=C(\C)CC/C=C(\C)CC/C=C(\C)CCC=C(C)C)=C(C)C1=O [oxidized coenzyme Q10]		about 60%	78%	two	two	0	2	2	exhibits no antioxidative activity	58%	52%								
COc1c(O)c(C)c(C/C=C(\C)CC/C=C(\C)CC/C=C(\C)CC/C=C(\C)CC/C=C(\C)CC/C=C(\C)CC/C=C(\C)CC/C=C(\C)CC/C=C(\C)CCC=C(C)C)c(O)c1OC [reduced coenzyme Q10]		about 40%	56%	tree	one	0			exhibits antioxidative activity in vitro	about 40%	kept at the same level	82%	73%	3	1				
vitamin E [reference compound]				two	two	0				about 80%	51%					2	2	63%	two
